# What was measured:
# OVA-sensitized mice = experiment: Murine model of OVA-induced allergic diarrhea: diarrhea scores; format: in vivo, Balb/c mice
# Description: Male Balb/c mice were sensitized by intraperitoneal injection of ovalbumin (OVA) together with aluminium potassium sulphate.
# (§1) Briefly, following sensitization (2 intraperitoneal injections of OVA and aluminium potassium sulphate at an interval of 14 days) adult male Balb/c mice were orally challenged with OVA for 6 times (days 28, 30, 33, 35, 37, 40) resulting in transient clinical symptoms (diarrhea) and changes of immune parameters (plasma concentration of total IgE, OVA specific IgE, mouse mast cell protease 1 (MMCP-1) as well as Th2 type cytokine production of ex vivo OVA re-stimulated mesenteric lymphocytes (MLN)). Substances, to be tested, were administered either by subcutaneous injection (thymoquinone and naloxone methiodide according to the literature) or by gavage (Nigella sativa extract).
# κ-hOR = κ-hOR (Homo sapiens, UniProt P41145); experiment: Ligand displacement from κ-opioid receptor; format: binding; conditions: 100 μM
# Chain of κ-hOR (P41145 whole entry): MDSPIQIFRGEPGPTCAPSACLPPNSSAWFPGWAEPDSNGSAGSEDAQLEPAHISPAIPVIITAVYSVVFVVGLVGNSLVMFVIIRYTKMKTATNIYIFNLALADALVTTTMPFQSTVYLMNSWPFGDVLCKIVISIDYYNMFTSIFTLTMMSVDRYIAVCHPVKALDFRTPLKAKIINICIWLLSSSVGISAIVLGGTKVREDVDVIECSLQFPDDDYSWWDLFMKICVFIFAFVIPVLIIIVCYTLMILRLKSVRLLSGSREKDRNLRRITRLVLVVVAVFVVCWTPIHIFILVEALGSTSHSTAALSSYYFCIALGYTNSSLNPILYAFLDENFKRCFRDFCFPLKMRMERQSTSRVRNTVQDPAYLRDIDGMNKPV
# μ-hOR = μ-hOR (Homo sapiens, UniProt P35372); experiment: Ligand displacement from μ-opioid receptor; format: binding; conditions: 100 μM
# Chain of μ-hOR (P35372 whole entry): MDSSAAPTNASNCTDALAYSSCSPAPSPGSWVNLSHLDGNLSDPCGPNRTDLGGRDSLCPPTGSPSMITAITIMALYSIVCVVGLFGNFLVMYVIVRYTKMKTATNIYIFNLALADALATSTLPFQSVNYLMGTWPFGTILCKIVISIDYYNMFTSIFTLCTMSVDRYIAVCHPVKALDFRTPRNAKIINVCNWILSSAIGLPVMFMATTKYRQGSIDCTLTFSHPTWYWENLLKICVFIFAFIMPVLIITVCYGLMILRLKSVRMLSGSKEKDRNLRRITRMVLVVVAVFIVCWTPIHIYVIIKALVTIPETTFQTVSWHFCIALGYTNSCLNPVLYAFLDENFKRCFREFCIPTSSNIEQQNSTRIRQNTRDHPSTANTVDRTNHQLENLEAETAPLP
# [1] = system: mouse mast cell protease 1 (MMCP-1); experiment: Murine model of OVA-induced allergic diarrhea: plasma MMCP-1; format: in vivo, Balb/c mice; conditions: thymoquinone study; 4th challenge; FIG. 2
# Description: as §1
# At large the MMCP-1 concentration in plasma correlates with the number of mast cells in the tissue which are known to be key players of diarrhea development in this mouse model (Brandt, E. B., et al., 2003, J. Clin. Invest 112, 1666-1677).
# δ-hOR = δ-hOR (Homo sapiens, UniProt P41143); experiment: Ligand displacement from δ-opioid receptor; format: binding; conditions: 100 μM
# Chain of δ-hOR (P41143 whole entry): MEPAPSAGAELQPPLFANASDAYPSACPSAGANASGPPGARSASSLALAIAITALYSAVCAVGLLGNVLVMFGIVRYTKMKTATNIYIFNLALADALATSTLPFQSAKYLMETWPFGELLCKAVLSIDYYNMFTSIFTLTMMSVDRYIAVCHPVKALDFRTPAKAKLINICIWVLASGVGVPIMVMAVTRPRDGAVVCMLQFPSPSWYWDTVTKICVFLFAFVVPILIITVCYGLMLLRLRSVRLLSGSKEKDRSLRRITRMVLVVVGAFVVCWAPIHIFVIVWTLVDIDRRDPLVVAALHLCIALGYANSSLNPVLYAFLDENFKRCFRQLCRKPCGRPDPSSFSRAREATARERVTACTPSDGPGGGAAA
Compound,"diarrhea score (Median ±RobustSD) (OVA-sensitized mice; 3rd challenge, FIG. 3, OVA control 1±1.2)","diarrhea score (Median ±RobustSD) (OVA-sensitized mice; 4th challenge, FIG. 3, OVA control 2±3.6)","diarrhea score (Median ±RobustSD) (OVA-sensitized mice; 5th challenge, FIG. 3, OVA control 4±0)","diarrhea score (Median ±RobustSD) (OVA-sensitized mice; 6th challenge, FIG. 3, OVA control 4.5±1.2)",κ-hOR % ligand displacement (κ-hOR) [%],μ-hOR % ligand displacement (μ-hOR) [%],plasma MMCP-1 compared to non-treated OVA challenged controls [1],"diarrhea score (Median ±RobustSD) (OVA-sensitized mice; OVA-challenged mice treated with thymoquinone (subcutaneous), after 6th challenge, FIG. 1, OVA control 5±0)","clinical symptoms compared to non-treated mice (OVA-sensitized mice; thymoquinone 4 days prior to sensitization and during challenge period, after 6th challenge)",δ-hOR % ligand displacement (δ-hOR) [%]
"C=CC[N+]1(C)CC[C@]23c4c5ccc(O)c4O[C@H]2C(=O)CC[C@@]3(O)[C@H]1C5.[I-] (stereo partly shown) [Naloxone, naloxone methiodide]",2±1.2,3.5±1.2,4±0,5±0,,,,,,
"CC1=CC(=O)C(C(C)C)=CC1=O [Thymoquinone, 2-Isopropyl-5-methyl-1,4-benzoquinone]",,,,,37,45,significantly lower,3±1.79,significantly improve,48
